Measurements reported in the supplement of paper PMC10307832.

What was measured:
[1] = compound: C1CC(C2=C(C1)C3=C(N2)C=CC(=C3)Cl)C(=O)N [Selisistat] + CCNC(=O)c1noc(-c2cc(C(C)C)c(O)cc2O)c1-c1ccc(CN2CCOCC2)cc1 [Luminespib] (partner 0.01 µM); experiment: relative viability (nuclei count vs DMSO), 5 days (fraction); higher = more cells survive
Outline: (§1)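 Lung cancer cell lines in 1536-well plates got either a single drug or a fixed anchor-drug dose together with five library-drug doses (not always all listed) in √10 steps, by pin tool, on the day after seeding. Nuclei were counted after 5 days, and relative viability is the treated-to-vehicle ratio of nuclei counts. Values are medians of duplicate plates.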

[2] = compound: C1CC(C2=C(C1)C3=C(N2)C=CC(=C3)Cl)C(=O)N [Selisistat] + Cc1nc(Nc2ncc(C(=O)Nc3c(C)cccc3Cl)s2)cc(N2CCN(CCO)CC2)n1 [Dasatinib] (partner 0.075 µM); experiment: as above
Outline: as §1

| Cell Line | relative viability ([1]; first compound 0.4 µM) | relative viability ([1]; first compound 1.265 µM) | relative viability ([1]; first compound 4 µM) | relative viability ([1]; first compound 12.65 µM) | relative viability ([1]; first compound 40 µM) | relative viability ([2]; first compound 0.4 µM) | relative viability ([2]; first compound 1.265 µM) | relative viability ([2]; first compound 4 µM) | relative viability ([2]; first compound 12.65 µM) | relative viability ([2]; first compound 40 µM) |
| --- | --- | --- | --- | --- | --- | --- | --- | --- | --- | --- |
| NCI-H522 | 1.07 | 1.1 | 0.789 | 1.17 | 1.08 | 0.736 | 0.644 | 0.784 | 0.803 | 0.759 |
| HCC-15 | 0.329 | 0.205 | – | 0.373 | 0.319 | 0.716 | 0.625 | – | 0.594 | 0.613 |
| A-427 | 0.882 | 0.729 | 0.881 | 0.977 | 0.949 | 0.744 | 0.657 | 0.584 | 0.752 | 0.772 |
| NCI-H2228 | 0.153 | 0.101 | 0.152 | 0.145 | 0.13 | 0.68 | 0.577 | 0.449 | 0.536 | 0.557 |
| NCI-H1734 | 0.173 | 0.194 | 0.223 | 0.208 | 0.216 | 0.48 | 0.469 | 0.622 | 0.502 | 0.464 |
| PC-14 | 0.141 | 0.151 | – | 0.221 | 0.311 | 0.259 | 0.302 | 0.279 | 0.289 | 0.3 |
| NCI-H1915 | 0.839 | 0.775 | 0.775 | 0.695 | 0.75 | 0.322 | 0.312 | 0.261 | 0.319 | 0.313 |
| NCI-H1666 | 1.05 | 1 | 0.969 | 0.995 | 0.878 | 0.799 | 0.763 | 0.734 | 0.594 | 0.525 |
| HCC-366 | – | – | – | – | – | 0.591 | 0.606 | 0.297 | 0.599 | 0.588 |
| SK-MES-1 | 1 | 0.906 | 0.802 | 0.622 | 0.788 | 0.451 | 0.294 | 0.293 | 0.346 | 0.264 |
| SW 1573 | 0.154 | 0.135 | 0.222 | 0.206 | 0.228 | 0.567 | 0.385 | 0.456 | 0.616 | 0.499 |
| NCI-H661 | 0.977 | 0.966 | 0.928 | 0.833 | 0.732 | 0.806 | 0.94 | 0.57 | 0.726 | 0.694 |
| PC-3 [JPC-3] | 0.784 | 0.68 | 0.6 | 0.687 | 0.657 | 0.998 | 0.976 | 0.884 | 0.975 | 0.976 |
| NCI-H1623 | 0.701 | 0.504 | 0.315 | 0.644 | 0.503 | 0.518 | 0.587 | 0.41 | 0.551 | 0.57 |
| LC-2-ad | 1.13 | – | 1.02 | 1 | 1.06 | 0.611 | – | 0.456 | 0.459 | 0.569 |
| CAL-12T | 0.546 | 0.326 | 0.275 | 0.784 | 0.401 | 0.451 | 0.478 | 0.316 | 0.281 | 0.372 |
| RERF-LC-KJ | 1.24 | 1.02 | 1.27 | 1.09 | 0.956 | 1.04 | 0.813 | 0.818 | 0.625 | 0.568 |

| Cell Line | relative viability ([1]; first compound 0.4 µM) | relative viability ([1]; first compound 1.265 µM) | relative viability ([1]; first compound 4 µM) | relative viability ([1]; first compound 12.65 µM) | relative viability ([1]; first compound 40 µM) | relative viability ([2]; first compound 0.4 µM) | relative viability ([2]; first compound 1.265 µM) | relative viability ([2]; first compound 4 µM) | relative viability ([2]; first compound 12.65 µM) | relative viability ([2]; first compound 40 µM) |
| --- | --- | --- | --- | --- | --- | --- | --- | --- | --- | --- |
| NCI-H1650 | 0.17 | 0.192 | 0.178 | 0.202 | 0.191 | 0.298 | 0.297 | 0.295 | 0.286 | 0.313 |
| BEN | 0.429 | 0.242 | 0.33 | 0.207 | 0.383 | 0.308 | 0.269 | 0.233 | 0.353 | 0.295 |
| EMC-BAC-2 | 1.12 | 1.07 | 1.14 | 1.17 | 1.08 | 0.355 | 0.367 | 0.378 | 0.317 | 0.315 |
| LU99A | 0.258 | 0.214 | 0.301 | 0.291 | 0.223 | 0.46 | 0.634 | 0.606 | 0.546 | 0.655 |
| ABC-1 | 0.477 | 0.483 | – | – | 0.627 | 0.553 | 0.469 | 0.589 | 0.588 | 0.509 |
| NCI-H2170 | 0.653 | 0.726 | 0.76 | 0.843 | 0.696 | 0.468 | 0.47 | 0.521 | 0.563 | 0.63 |
| NCI-H2347 | 0.322 | 0.406 | 0.186 | 0.283 | 1.01 | 0.343 | 0.299 | 0.171 | 0.344 | 0.31 |
| NCI-H1993 | 0.868 | 0.685 | 0.831 | 1.06 | 0.846 | 0.629 | 0.655 | 0.501 | 0.672 | 0.589 |
| NCI-H322M | 0.875 | 0.82 | 0.562 | 0.868 | 0.812 | 0.266 | 0.259 | 0.243 | 0.26 | 0.26 |
| NCI-H838 | 0.313 | 0.332 | 0.349 | 0.392 | 0.311 | 0.273 | 0.293 | 0.263 | 0.279 | 0.285 |
| HARA | 0.909 | 1.02 | 0.846 | 0.584 | 1.04 | 0.25 | 0.299 | 0.202 | 0.166 | 0.264 |
| NCI-H2087 | 0.157 | 0.139 | – | 0.147 | 0.158 | 1.08 | 0.837 | – | 0.82 | 0.777 |
| NCI-H1437 | 1.1 | 1.12 | 1.09 | 1.1 | 0.922 | 0.399 | 0.349 | – | 0.331 | 0.514 |
| NCI-H2342 | 0.725 | 0.668 | 0.625 | 0.923 | 0.742 | 0.312 | 0.339 | 0.297 | 0.33 | 0.363 |
| NCI-H1792 | 0.406 | 0.52 | – | 0.536 | 0.399 | 0.806 | 0.805 | – | 0.677 | 0.498 |
| ChaGo-K-1 | 0.586 | 0.581 | 0.648 | 0.526 | 0.61 | 0.562 | 0.551 | 0.563 | 0.539 | 0.592 |
| NCI-H650 | 0.874 | 0.772 | 0.894 | 0.77 | 0.665 | 0.427 | 0.469 | 0.52 | 0.382 | 0.493 |
